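Dose response: 5 concentrations. Exposure: 48 h. Format: 96-well plates. Endpoint: linear interpolation; highest concentration if not reached. GI50 marks 50% less growth.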 Activity calls are given as the source filed them. No stated cut-off is given here; in the data, active = GI50 up to about 1.1 µM and inactive = higher.
Assays:
Experiment in all cases: growth of human tumour cells (NCI), 48 h
[1] = tested on: T47D
[2] = tested on: RPMI-8226
[3] = tested on: OVCAR-5
[4] = tested on: MDA-N
[5] = tested on: HT-29
[6] = tested on: K562
[7] = tested on: SK-MEL-28
[8] = tested on: UACC-62
[9] = tested on: A549
[10] = tested on: SR
[11] = tested on: HCC 2998
[12] = tested on: MCF7
[13] = tested on: HL-60
[14] = tested on: SF-295
[15] = tested on: SW-620
[16] = tested on: TK-10
[17] = tested on: MDA-MB-435
[18] = tested on: NCI-H522
[19] = tested on: HCT-116

Measured: GI50

COC1(CC[C@@H](C)COC2OC(CO)C(O)C(O)C2O)OC2C[C@H]3[C@@H]4CC[C@H]5C[C@@H](OC6OC(CO)C(OC7OC(CO)C(O)C(O)C7O)C(O)C6OC6OC(C)C(O)C(O)C6O)[C@H](O)C[C@]5(C)[C@H]4CC[C@]3(C)C2[C@@H]1C (some centres undefined)
inactive: [1] 3.04 µM | [2] 2 µM | [3] 2.17 µM | [4] 2.19 µM | [5] 2.19 µM | [6] 2.37 µM | [7] 1.88 µM | [8] 1.85 µM | [9] 1.92 µM | [10] 2.77 µM | [11] 1.7 µM | [12] 2.88 µM | [13] 2.32 µM | [14] 1.8 µM | [15] 2.06 µM | [16] 2.12 µM | [17] 1.84 µM | [18] 2.2 µM | [19] 1.86 µM

COc1cc2c(cc1-c1coc3cc(OCC=C(C)C)ccc3c1=O)OCO2
inactive: [1] 17.7 µM | [2] 15.3 µM | [3] 55.6 µM | [4] 6.7 µM | [6] 6.85 µM | [7] 45.8 µM | [8] 25.6 µM | [9] 28.6 µM | [10] 6.32 µM | [11] 15.4 µM | [12] 28.6 µM | [13] 10 µM | [14] 33.6 µM | [15] 25.5 µM | [16] 48.4 µM | [17] 9.25 µM | [18] 15.5 µM | [19] 17.2 µM

N=C(N)SC1c2ccccc2-c2cc([N+](=O)[O-])ccc21 (centres undefined)
inactive: [1] 2.95 µM | [2] 4.2 µM | [3] 9.95 µM | [4] 3 µM | [5] 3.66 µM | [6] 3.89 µM | [7] 2.41 µM | [8] 2.86 µM | [9] 4.33 µM | [10] 3.86 µM | [11] 2.59 µM | [12] 3.24 µM | [13] 2.61 µM | [14] 4.01 µM | [15] 3.15 µM | [16] 8.24 µM | [17] 1.92 µM | [18] 2.51 µM | [19] 4.76 µM

O=C(Cc1ccc(Cl)cc1)Nc1ccc2oc(-c3ccccc3)nc2c1
inactive: [1] > 100 µM | [2] > 100 µM | [3] > 100 µM | [4] > 100 µM | [5] > 100 µM | [6] > 100 µM | [7] > 100 µM | [8] > 100 µM | [9] > 100 µM | [10] > 100 µM | [11] > 100 µM | [12] > 100 µM | [13] > 100 µM | [14] > 100 µM | [15] > 100 µM | [16] > 100 µM | [17] > 100 µM | [18] > 100 µM | [19] > 100 µM

C#CC(O)/C=C/C(O)CCCC(O)CC#CC(O)C#CCCCCC(O)/C=C/CCCC(=O)CCCCCCCCCCCCCCCC(O)C(O)C#CC(=O)O (centres undefined)
inactive: [1] 14.2 µM | [2] > 25 µM | [3] > 25 µM | [4] > 25 µM | [5] > 25 µM | [6] > 25 µM | [7] > 25 µM | [8] > 25 µM | [9] > 25 µM | [10] > 25 µM | [11] > 25 µM | [12] > 25 µM | [13] > 25 µM | [14] > 25 µM | [16] > 25 µM | [17] > 25 µM | [18] 6.28 µM | [19] > 25 µM

COc1ccccc1[S+]([O-])Nc1ccccc1 (centres undefined)
inactive: [1] 11.9 µM | [2] 72.9 µM | [3] > 100 µM | [4] > 100 µM | [5] 50.9 µM | [6] 25.4 µM | [7] > 100 µM | [8] 10.7 µM | [9] 74.6 µM | [10] 21.6 µM | [11] 83.2 µM | [12] > 100 µM | [13] 82.8 µM | [14] > 100 µM | [15] 30.7 µM | [16] > 100 µM | [17] 31 µM | [18] 38.2 µM | [19] 51.1 µM

CCOC(=O)c1c(C)n(-c2ccc(Cl)cc2)c2c1cc(O)c1[nH]c3c(c12)CCCC3
inactive: [1] > 100 µM | [2] 33.9 µM | [3] > 100 µM | [4] 35.7 µM | [5] 30.2 µM | [6] 41.3 µM | [7] 33.2 µM | [8] 27.1 µM | [9] > 100 µM | [10] 3.87 µM | [11] 60.7 µM | [12] 34.7 µM | [13] 34.6 µM | [14] 52.8 µM | [15] 47.3 µM | [16] > 100 µM | [17] 24.9 µM | [18] 24.3 µM | [19] > 100 µM

Sc1nnc(-c2ccccc2Nc2ccccc2-c2nnc(S)n2-c2ccccc2)n1-c1ccccc1
inactive: [1] 23.9 µM | [2] 20 µM | [3] 47.9 µM | [4] 32.1 µM | [5] 35.5 µM | [6] 52.7 µM | [7] 19.5 µM | [8] 58.3 µM | [10] 37 µM | [11] 36.6 µM | [12] 37.2 µM | [13] 22.8 µM | [14] 43.1 µM | [15] 26.9 µM | [16] 52.8 µM | [17] 22.9 µM | [18] 26.7 µM | [19] 63.1 µM

CCOC(=O)NC(=S)c1ccc(O)c2ccccc12
inactive: [1] > 100 µM | [2] 74.5 µM | [3] > 100 µM | [4] 26.4 µM | [5] 66.1 µM | [6] 42.1 µM | [7] 32.4 µM | [8] 68.1 µM | [9] 44.9 µM | [10] 25.5 µM | [11] 91 µM | [12] 72.1 µM | [13] 1.47 µM | [14] 46.3 µM | [15] 51.6 µM | [17] 40.7 µM | [18] 16.9 µM | [19] 84.7 µM

O=C(O)c1ccc(Nc2nc3ccccc3nc2C(=O)O)cc1
inactive: [1] > 100 µM | [2] > 100 µM | [3] > 100 µM | [4] > 100 µM | [5] > 100 µM | [6] > 100 µM | [7] > 100 µM | [8] > 100 µM | [9] > 100 µM | [10] > 100 µM | [11] > 100 µM | [12] > 100 µM | [13] > 10 µM | [14] > 100 µM | [16] > 100 µM | [17] > 100 µM | [18] > 100 µM | [19] > 100 µM

O=[N+]([O-])c1ccc(O)c(/C=N/c2nc(-c3ccccc3)cs2)c1
inactive: [1] 24.3 µM | [2] 8.95 µM | [3] 31.6 µM | [4] 27.5 µM | [5] 34.2 µM | [6] 2.4 µM | [7] 31.9 µM | [8] 4.67 µM | [9] 38.5 µM | [10] 3.03 µM | [11] 24.8 µM | [12] 26.8 µM | [13] 34.2 µM | [14] 33.1 µM | [15] 37.6 µM | [16] 42.5 µM | [17] 35.5 µM | [18] 19.2 µM | [19] 26.7 µM

Source: ChEMBL document CHEMBL1201862, “PubChem BioAssay data set” (2004)
